The IC50 is the concentration that inhibits the measured activity by half.

Molecules are shown by their SMILES. Numbered stars: 1 amine (or outer) side, 2 acyl side, 3 side chain; on linkers, the order of the positions; unused ones are H or OH. Bridge positions count the residues as written; N and C are the ends. Square brackets hold non-standard residues; d marks the D form. Peptide text beside a SMILES is read from it. * marks the point of attachment. ξ: configuration not given here. Phe(3,4,5-F3) = N[C@@H](Cc1cc(F)c(F)c(F)c1)C(=O)O; Phe(3-CF3) = N[C@@H](Cc1cccc(C(F)(F)F)c1)C(=O)O; Phe(4-COOH) = N[C@@H](Cc1ccc(C(=O)O)cc1)C(=O)O; Bip = N[C@@H](Cc1ccc(-c2ccccc2)cc1)C(=O)O; Phe(3-CN) = N#Cc1cccc(C[C@H](N)C(=O)O)c1; Phe(3-Me) = Cc1cccc(C[C@H](N)C(=O)O)c1; βAsp = O=C(O)[C@H](CC(=O)[*:2])N[*:1]; NH(CH2)12COOH = O=C(O)CCCCCCCCCCCCN*; His(π-Me) = Cn1cncc1C[C@H](N)C(=O)O; Val(3-OH) = CC(C)(O)[C@H](N)C(=O)O; hArg = N=C(N)NCCCC[C@H](N)C(=O)O; 4Pal = N[C@@H](Cc1ccncc1)C(=O)O; Cha = N[C@@H](CC1CCCCC1)C(=O)O; Cit = NC(=O)NCCC[C@H](N)C(=O)O; aThr = C[C@H](O)[C@H](N)C(=O)O; Thr(3ξ) = CC(O)[C@H](N)C(=O)O; Carboxymethyl = O=C(O)C*; NMeA = CN[C@@H](C)C(=O)O; Nle = CCCC[C@H](N)C(=O)O; Orn = NCCC[C@H](N)C(=O)O; Aun = NCCCCCCCCCCC(=O)O; Dab = NCC[C@H](N)C(=O)O; Nva = CCC[C@H](N)C(=O)O; Abu = CC[C@H](N)C(=O)O; Dap = NC[C@H](N)C(=O)O; AEEA = NCCOCCOCC(=O)O; ξC = NC(CS)C(=O)O

T1 sequence (Q15116 25-288): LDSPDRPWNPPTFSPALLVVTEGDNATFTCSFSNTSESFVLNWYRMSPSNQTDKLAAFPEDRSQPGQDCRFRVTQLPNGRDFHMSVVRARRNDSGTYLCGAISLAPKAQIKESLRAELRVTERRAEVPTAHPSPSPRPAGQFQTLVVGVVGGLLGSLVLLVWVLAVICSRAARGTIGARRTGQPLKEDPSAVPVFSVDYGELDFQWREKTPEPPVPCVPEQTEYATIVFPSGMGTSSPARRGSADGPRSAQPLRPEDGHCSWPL

This assay has as its target T1, PD-1/PD-L1 interaction (PE-labeled human PD-L1-Ig binding to Jurkat cell line over-expressing human PD-1) (Homo sapiens, UniProt Q15116).
T1 construct: expressed in transfected cells; host or cells: Jurkat
Put plainly: Jurkat-PD-1 Cell Binding High-Content Screening Assay (CBA). It is filed as cell-based. The settings on record: Jurkat cell line over-expressing human PD-1; PE-labeled PD-L1-Ig 20 nM final; read-out: Jurkat hPD1-PDL1 IC50. In short, it runs like this:
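Human PD-L1-Ig carrying a covalent PE label on its Ig tag serves as the probe, applied at 20 nM final to compound-treated (2 h, 37° C) Jurkat-hPD-1 cells in medium with 10% fetal calf serum. After one hour, fixation and nuclear staining precede high-content image analysis.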
In the case of `Cc1cccc(C[C@@H]2NC(=O)[C@H](CC(=O)O)NC(=O)[C@H](Cc3ccc(OCC(=O)O)cc3)NC(=O)[C@H](CN)NC(=O)CSC[C@@H](C(=O)N(C)[C@@H](C)C(=O)N[C@@H](CCC(=O)O)C(=O)NCCCCCCCCCCC(=O)O)NC(=O)[C@H]([C@@H](C)O)NC(=O)[C@H](C(C)C)NC(=O)[C@H](CC3CCCCC3)NC(=O)[C@H](CCN)NC(=O)[C@@H](CC(C)C)NC(=O)[C@H](CCCN)NC(=O)[C@H](CCCNC(N)=O)NC(=O)[C@H](Cc3ccc(-c4ccccc4)cc3)NC(=O)[C@H](C(C)C)NC2=O)c1` [Compound 2783] ({CH2CO}-[Dap]Y(Carboxymethyl)D[Phe(3-Me)]V[Bip][Cit][Orn][dL][Dab][Cha]VTC[NMeA]E[Aun]-OH; thioether N-14), the IC50 worked out at 368 nM.

`CC[C@H](C)[C@@H]1NC(=O)[C@H](Cc2ccc(-c3ccccc3)cc2)NC(=O)[C@H](C(C)C)NC(=O)[C@H](Cc2c[nH]c3ccccc23)NC(=O)[C@H](CC(=O)O)NC(=O)[C@H](Cc2ccc(OCC(=O)O)cc2)NC(=O)[C@H](Cc2ccncc2)NC(=O)CSC[C@@H](C(=O)N[C@@H](CCCNC(=N)N)C(=O)NCCOCCOCC(=O)NCCCCCCCCCCC(=O)O)NC(=O)[C@H]([C@@H](C)O)NC(=O)[C@H](C(C)C)NC(=O)[C@H](CC(C)C)NC(=O)[C@H](CCN)NC(=O)[C@@H](CC(C)C)NC(=O)[C@H](CCCN)NC1=O` [Compound 1161] ({CH2CO}-[4Pal]Y(Carboxymethyl)DWV[Bip]I[Orn][dL][Dab]LVTCR[AEEA][Aun]-OH; thioether N-14): the IC50 amounted to 25.3 nM.

For the molecule `CCCC[C@@H]1NC(=O)CSC[C@@H](C(=O)N[C@@H](CCN)C(=O)NCCOCCOCC(=O)NCCOCCOCC(=O)NCCCCCCCCCCCCC(=O)O)NC(=O)[C@H](CC(=O)O)NC(=O)[C@H](C(C)(C)O)NC(=O)[C@H](CC2CCCCC2)NC(=O)[C@H](CCN)NC(=O)[C@@H](CC(C)C)NC(=O)[C@H](CCCN)NC(=O)[C@H](Cc2ccc(C(=O)O)cc2)NC(=O)[C@H](Cc2ccc(-c3ccccc3)cc2)NC(=O)[C@H](Cc2ccc(C(=O)O)cc2)NC(=O)[C@H](Cc2cccc(C)c2)NC(=O)[C@H](CC(=O)O)NC(=O)[C@H](Cc2ccc(OCC(=O)O)cc2)NC1=O` [Compound 2893] ({CH2CO}-[Nle]Y(Carboxymethyl)D[Phe(3-Me)][Phe(4-COOH)][Bip][Phe(4-COOH)][Orn][dL][Dab][Cha][Val(3-OH)]DC[Dab][AEEA][AEEA]-{NH(CH2)12COOH}; thioether N-14), the IC50 is 19.5 nM.

Turning to `CC(C)C[C@H]1NC(=O)[C@H](CCCN)NC(=O)[C@H](Cc2ccc(O)cc2)NC(=O)[C@H](Cc2ccc(-c3ccccc3)cc2)NC(=O)[C@H](C(C)C)NC(=O)[C@H](Cc2cccc(C#N)c2)NC(=O)[C@H](CC(=O)O)NC(=O)[C@H](Cc2ccc(OCC(=O)O)cc2)NC(=O)[C@H](CN)NC(=O)CSC[C@@H](C(=O)N[C@@H](CCN)C(=O)NCCOCCOCC(=O)NCCCCCCCCCCC(=O)O)NC(=O)[C@H](CCCN)NC(=O)[C@H](C(C)C)NC(=O)[C@H](CC2CCCCC2)NC(=O)[C@H](CCN)NC1=O` [Compound 1291] ({CH2CO}-[Dap]Y(Carboxymethyl)D[Phe(3-CN)]V[Bip]Y[Orn][dL][Dab][Cha]V[Orn]C[Dab][AEEA][Aun]-OH; thioether N-14), the half-maximal inhibitory concentration (IC50) turned out to be 14.7 nM.

As for `CC[C@@H]1NC(=O)CSC[C@@H](C(=O)N[C@@H](CCN)C(=O)NCCOCCOCC(=O)N[C@@H](CC(=O)NCCOCCOCC(=O)NCCCCCCCCCCCCC(=O)O)C(=O)O)NC(=O)[C@H](CO)NC(=O)[C@H](C(C)(C)O)NC(=O)[C@H](CC2CCCCC2)NC(=O)[C@H](CCN)NC(=O)[C@@H](CC(C)C)NC(=O)[C@H](CCCN)NC(=O)[C@H](Cc2ccc(C(=O)O)cc2)NC(=O)[C@H](Cc2ccc(-c3ccccc3)cc2)NC(=O)[C@H](Cc2ccc(C(=O)O)cc2)NC(=O)[C@H](Cc2cccc(C(F)(F)F)c2)NC(=O)[C@H](CC(=O)O)NC(=O)[C@H](Cc2ccc(OCC(=O)O)cc2)NC1=O` [Compound 2933] ({CH2CO}-[Abu]Y(Carboxymethyl)D[Phe(3-CF3)][Phe(4-COOH)][Bip][Phe(4-COOH)][Orn][dL][Dab][Cha][Val(3-OH)]SC[Dab][AEEA][βAsp][AEEA]-{NH(CH2)12COOH}; thioether N-14), the IC50 is 26.5 nM.

In the case of `Cc1cccc(C[C@@H]2NC(=O)[C@H](CC(=O)O)NC(=O)[C@H](Cc3ccc(OCC(=O)O)cc3)NC(=O)[C@H](C(C)O)NC(=O)CSC[C@@H](C(=O)N[C@@H](CCN)C(=O)NCCCCCCCCCCCCC(=O)O)NC(=O)[C@H](CO)NC(=O)[C@H](C(C)(C)O)NC(=O)[C@H](CC3CCCCC3)NC(=O)[C@H](CCN)NC(=O)[C@@H](CC(C)C)NC(=O)[C@H](CCCN)NC(=O)[C@H](Cc3ccc(OCC(=O)O)cc3)NC(=O)[C@H](Cc3ccc(-c4ccccc4)cc3)NC(=O)[C@H](Cc3ccc(OCC(=O)O)cc3)NC2=O)c1` (stereo partly drawn) [Compound 3844] ({CH2CO}-[Thr(3ξ)]Y(Carboxymethyl)D[Phe(3-Me)]Y(Carboxymethyl)[Bip]Y(Carboxymethyl)[Orn][dL][Dab][Cha][Val(3-OH)]SC[Dab]-{NH(CH2)12COOH}; thioether N-14), the IC50 was 15.2 nM.

Consider `CCC[C@@H]1NC(=O)CSC[C@@H](C(=O)N[C@@H](CCN)C(=O)NCCCCCCCCCCCCC(=O)O)NC(=O)[C@H](CO)NC(=O)[C@H](C(C)(C)O)NC(=O)[C@H](CC2CCCCC2)NC(=O)[C@H](CCN)NC(=O)[C@@H](CC(C)C)NC(=O)[C@H](CCCN)NC(=O)[C@H](Cc2ccc(OCC(=O)O)cc2)NC(=O)[C@H](Cc2ccc(-c3ccccc3)cc2)NC(=O)[C@H](Cc2ccc(OCC(=O)O)cc2)NC(=O)[C@H](Cc2cccc(C(F)(F)F)c2)NC(=O)[C@H](CC(=O)O)NC(=O)[C@H](Cc2ccc(C(=O)O)cc2)NC1=O` [Compound 2903] ({CH2CO}-[Nva][Phe(4-COOH)]D[Phe(3-CF3)]Y(Carboxymethyl)[Bip]Y(Carboxymethyl)[Orn][dL][Dab][Cha][Val(3-OH)]SC[Dab]-{NH(CH2)12COOH}; thioether N-14), for which the IC50 came to 27.7 nM.

Take `Cc1cccc(C[C@@H]2NC(=O)[C@H](CC(=O)O)NC(=O)[C@H](Cc3ccc(OCC(=O)O)cc3)NC(=O)[C@H](CCCCNC(=N)N)NC(=O)CSC[C@@H](C(=O)NCCOCCOCC(=O)N[C@@H](CCCCN)C(=O)NCCCCCCCCCCC(=O)O)NC(=O)[C@H]([C@H](C)O)NC(=O)[C@H](C(C)C)NC(=O)[C@H](CC3CCCCC3)NC(=O)[C@H](CC(N)=O)NC(=O)[C@@H](CC(C)C)NC(=O)[C@H](CCCN)NC(=O)[C@H](C(C)C)NC(=O)[C@H](Cc3ccc(-c4ccccc4)cc3)NC(=O)[C@H](C(C)C)NC2=O)c1` [Compound 3162] ({CH2CO}-[hArg]Y(Carboxymethyl)D[Phe(3-Me)]V[Bip]V[Orn][dL]N[Cha]V[aThr]C[AEEA]K[Aun]-OH; thioether N-14): the IC50 worked out at 26.3 nM.

Turning to `CC(C)C[C@H]1NC(=O)[C@H](CCCN)NC(=O)[C@H](Cc2ccc(OCC(=O)O)cc2)NC(=O)[C@H](Cc2ccc(-c3ccccc3)cc2)NC(=O)[C@H](Cc2ccc(OCC(=O)O)cc2)NC(=O)[C@H](Cc2cc(F)c(F)c(F)c2)NC(=O)[C@H](CC(=O)O)NC(=O)[C@H](Cc2ccc(OCC(=O)O)cc2)NC(=O)[C@H](Cc2ccncc2)NC(=O)CSC[C@@H](C(=O)N[C@@H](CCN)C(=O)NCCCCCCCCCCC(=O)O)NC(=O)[C@H](CO)NC(=O)[C@H](C(C)(C)O)NC(=O)[C@H](CC2CCCCC2)NC(=O)[C@H](CCN)NC1=O` [Compound 2201] ({CH2CO}-[4Pal]Y(Carboxymethyl)D[Phe(3,4,5-F3)]Y(Carboxymethyl)[Bip]Y(Carboxymethyl)[Orn][dL][Dab][Cha][Val(3-OH)]SC[Dab][Aun]-OH; thioether N-14), the IC50 was found to be 78.4 nM.

Consider `Cc1cccc(C[C@@H]2NC(=O)[C@H](CC(=O)O)NC(=O)[C@H](Cc3ccc(OCC(=O)O)cc3)NC(=O)[C@H](Cc3cncn3C)NC(=O)CSC[C@@H](C(=O)N[C@@H](CCN)C(=O)NCCCCCCCCCCC(=O)O)NC(=O)[C@H]([C@@H](C)O)NC(=O)[C@H](C(C)C)NC(=O)[C@H](CC3CCCCC3)NC(=O)[C@H](CCN)NC(=O)[C@@H](CC(C)C)NC(=O)[C@H](CCCN)NC(=O)[C@H](Cc3ccc(OCC(=O)O)cc3)NC(=O)[C@H](Cc3ccc(-c4ccccc4)cc3)NC(=O)[C@H](C(C)(C)O)NC2=O)c1` [Compound 2152] ({CH2CO}-[His(π-Me)]Y(Carboxymethyl)D[Phe(3-Me)][Val(3-OH)][Bip]Y(Carboxymethyl)[Orn][dL][Dab][Cha]VTC[Dab][Aun]-OH; thioether N-14), for which the IC50 amounted to 73.6 nM.

Regarding `CC(C)C[C@H]1NC(=O)[C@H](CCCN)NC(=O)[C@H](CCCNC(N)=O)NC(=O)[C@H](Cc2ccc(-c3ccccc3)cc2)NC(=O)[C@H](C(C)C)NC(=O)[C@H](Cc2c[nH]c3ccccc23)NC(=O)[C@H](CC(=O)O)NC(=O)[C@H](Cc2ccc(OCC(=O)O)cc2)NC(=O)[C@H](CN)NC(=O)CSCC(C(=O)NCCOCCOCC(=O)NCCCCCCCCCCC(=O)O)NC(=O)[C@H](CCCCN)NC(=O)[C@H](C(C)C)NC(=O)[C@H](CC2CCCCC2)NC(=O)[C@H](CCN)NC1=O` (stereo partly drawn) [Compound 2643] ({CH2CO}-[Dap]Y(Carboxymethyl)DWV[Bip][Cit][Orn][dL][Dab][Cha]VK[ξC][AEEA][Aun]-OH; thioether N-14), the IC50 was 7.2 nM.

As for `Cc1cccc(C[C@@H]2NC(=O)[C@H](CC(=O)O)NC(=O)[C@H](Cc3ccc(OCC(=O)O)cc3)NC(=O)[C@H](CN)NC(=O)CSC[C@@H](C(=O)N[C@@H](CC(=O)O)C(=O)NCC(=O)NCCCCCCCCCCC(=O)O)NC(=O)[C@H]([C@@H](C)O)NC(=O)[C@H](C(C)C)NC(=O)[C@H](CC3CCCCC3)NC(=O)[C@H](Cc3cnc[nH]3)NC(=O)[C@@H](CC(C)C)NC(=O)[C@H](CCCN)NC(=O)[C@H](C(C)C)NC(=O)[C@H](Cc3ccc(-c4ccccc4)cc3)NC(=O)[C@H](C(C)C)NC2=O)c1` [Compound 1093] ({CH2CO}-[Dap]Y(Carboxymethyl)D[Phe(3-Me)]V[Bip]V[Orn][dL]H[Cha]VTCDG[Aun]-OH; thioether N-14), the IC50 turned out to be 11.8 nM.
